Data set [1] deals with Daphnia magna. Put plainly: whole plant or invertebrate. Particulars: for EC50: Daphnia magna, read-out: Mean EC50. Type of data set: in vivo. The procedure:
Determination of the EC50 Value in Test Tubes
Using Daphnia magna as a test species a series of test concentrations of the standard reference toxicant CuSO4 was established in triplicate. Each replicate consisted of 10 ml of test media in a 15 ml glass test tube. Five organisms were placed in each tube. The tubes were then maintained for a period of one hour at ambient room environmental conditions. At the end of one hour 0.4 mg of the substrate 4-Methylumbelliferyl b-D-galactoside (MUF) was added. Fifteen minutes after the addition of the MUF the test tubes were taken into a dark room. […] A record was made of the number of strongly fluorescing Daphnia magna bodies. […] These organisms were then compared to each of the other triplicate concentrations.
The data was then analyzed statistically by conventional methods (Methods for Measuring the Acute Toxicity of Effluents to Freshwater and Marine Organisms (Third Edition) EPA/600/4-85/013).
11 standard reference toxicants were then analyzed by the above method. […]

The subject of data set [2] is Daphnia magna. Briefly: Daphnia magna fluorescence bioassay in a multiwell plate (Example 1). It is filed as in vivo. Also noted: key to fluorescence of Daphnia magna: fluorescing; nonfluorescing. The conditions noted are these: for fluorescence of Daphnia magna / survival (all alive): replicates #1, #2, #3. An excerpt:
Determination of an EC50 Value in a Multiwell Plate
The objective of this example was to determine the EC50 value and its confidence limits for the test substance copper sulfate ([…]) to the common water flea, Daphnia magna.
Using the invertebrate Daphnia magna as a test species a series of test concentratins are established with the standard reference toxicant copper sulfate, CuSo4, in triplicate at the following concentrations:
One ml of each of the above CuSO4 solutions was pippetted into a mutiwell plate (3 replications per concentration, 1 ml per replicate). To each of 18 wells in the plate 5 Daphnia magna were added and exposed to the test concentrations for a period of five minutes. Then to each of the 18 wells, with the exception of 0-B 1, 2 and 3, 1.0 mg of 4-Methylumbelliferyl b-D-Galactoside (MUF) was dropped onto the surface of each well. The powder settled to the bottom of each well. After 1 minute of exposure, each sample was read. An ultra-violet light (black light) was held over the multiwell in a dark room. The fluorescent intensity of Controls 0-A ppm (maximum intensity) and Controls 0-B ppm (minimum intensity) were utilized as baselines to compare the effects of test concentrations 0.01 through 10.0 ppm CuSO4.

[3] abbreviates: Table 2, three tests at different times per toxicant, 1 hour exposure, 15 minutes after MUF.

This is an account of results in US5094944A, “Flourescent aquatic bioassay and procedure” (priority 1990, dated 1992).

≈ marks a conversion by molar mass, not a printed value.

`c1ccccc1` [Benzene]: in the data set with Daphnia magna [1] (1 h), the EC50 turned out to be 6.5 µg/mL (≈ 83.2 µM). On to `[Cd]` [Cd, cadmium], for which the “Mean EC50” value in the data set with Daphnia magna [1] (setting [3]) was found to be 0.41 ppm. On the same count and under the same terms, the figure for `[Cr]` [Cr, chromium] is 3.7 ppm. Turning to `[Cu]` [Cu, copper], the “EC50 for Cu with Daphnia magna” value in the data set with Daphnia magna [1] (test tubes, 1 hour exposure, 15 minutes after MUF) is 0.23 ppm.

Take `C=O` [Formaldehyde]: in the data set on Daphnia magna [1] (1 h), the EC50 was 39.2 µg/mL (≈ 1310 µM).

In the case of `CCCCCCCCCCCCOS(=O)(=O)O` [NaLS], in the data set with Daphnia magna [1] (setting [3]), the EC50 turned out to be 74.1 µg/mL (≈ 278 µM).

As for `Oc1c(Cl)c(Cl)c(Cl)c(Cl)c1Cl` [NaPCP], the EC50 in the data set on Daphnia magna [1] (setting [3]) stood at 1 µg/mL (≈ 3.75 µM). `Oc1ccccc1` [Phenol]: in the data set on Daphnia magna [1] (1 h), the EC50 stood at 37.1 µg/mL (≈ 394 µM).

Consider `Cc1ccccc1` [Toluene], for which the EC50 with Daphnia magna [1] (1 h) was 6.3 µg/mL (≈ 68.4 µM).

For `[Zn]` [Zn, zinc], the “Mean EC50” value in the data set with Daphnia magna [1] (setting [3]) was determined as 4.3 ppm. As for copper sulfate [CuSO4], the “fluorescence of Daphnia magna” value is on record as “f” in the data set on Daphnia magna [2] (0.01 ppm), “f” in the data set on Daphnia magna [2] (0.1 ppm), “f” in the data set with Daphnia magna [2] (1.0 ppm) and “nf” with Daphnia magna [2] (10.0 ppm). The “survival (all alive)” value in the data set on Daphnia magna [2] (0.01 ppm), with Daphnia magna [2] (0.1 ppm), with Daphnia magna [2] (1.0 ppm) and with Daphnia magna [2] (10.0 ppm) was “all alive” throughout. In addition, in the data set with Daphnia magna [2] (10.0 ppm, in less than 10 minutes), the “sublethal adverse affect detected” value is given as “sublethal adverse affect”. In the data set on Daphnia magna [2] (multiwell plate, 5 minutes exposure, MUF substrate, read after 1 minute), the EC50 is 3.2 ppm. With mercury [Hg], the “Mean EC50” value in the data set with Daphnia magna [1] (setting [3]) came to 0.02 ppm.
